Target: T1, tubulin (Sus scrofa, UniProt P02550+P02554)
T1 construct: purchased Cytoskeleton, Denver, CO, USA
Test: Cell free tubulin polymerization assay (fluorescence-based)
Assay type: biochemical
Protocol: The tubulin polymerization process was evaluated using a tubulin (>99% pure) and fluorescence-based tubulin polymerization kit (Cytoskeleton, Denver, CO, USA). The effects of compounds 16b and 29 (at final concentrations of 1, 10, 50, 100 µM) on tubulin polymerization were evaluated in cell-free conditions. Paclitaxel (PTX) and vinblastine (VBL) (3 µM) were used as references, and DMSO (0.2%) was used as the vehicle control. This assay tracks the process of tubulin polymerization through an increase in fluorescence resulting from the addition of a fluorescence reporter to microtubules as polymerization occurs. After incubating the tested compounds at 37°C for 1 minute, the icy tubulin reaction mixture (2 mg/mL tubulin, 1.0 mM GTP, 15% glycerol in buffer containing 80 mM PIPES, 2.0 mM MgCl2, 0.5 mM EGTA, pH 6.9, and 10 µM fluorescent reporter) was added to the samples, which were then mixed and monitored using a spectrophotometric microplate reader (Infinite 200 Pro, Tecan) at 1-minute intervals for 90 minutes at 37°C (excitation: 360 nm, emission: 450 nm). The software installed on the plate reader was used to compute the maximum slope (Vmax) of the growth phase, measured in RFU/min, as outlined in the manufacturer's instructions. Each polymerization curve's Vmax was then standardized against the control curve's Vmax. The IC50 values were determined using an online tool (AAT Bioquest, Inc., Quest Graph™ IC50 Calculator ((v.1). Retrieved from https://www.aatbio.com/tools/IC50-calculator-v1, accessed on: 2024, May 6).

T1 sequence (P02554 whole entry): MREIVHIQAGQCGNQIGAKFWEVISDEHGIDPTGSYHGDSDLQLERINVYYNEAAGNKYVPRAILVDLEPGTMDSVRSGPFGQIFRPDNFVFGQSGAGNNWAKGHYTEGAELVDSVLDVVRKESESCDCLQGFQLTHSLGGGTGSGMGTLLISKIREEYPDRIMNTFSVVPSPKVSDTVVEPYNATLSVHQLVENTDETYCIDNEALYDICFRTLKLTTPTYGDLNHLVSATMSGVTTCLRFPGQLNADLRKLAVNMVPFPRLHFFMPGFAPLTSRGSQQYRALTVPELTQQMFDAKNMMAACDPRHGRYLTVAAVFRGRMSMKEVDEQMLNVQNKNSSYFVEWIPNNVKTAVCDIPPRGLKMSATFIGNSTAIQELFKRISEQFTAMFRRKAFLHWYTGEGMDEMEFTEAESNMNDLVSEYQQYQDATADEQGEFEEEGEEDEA
T1 sequence (P02550 whole entry): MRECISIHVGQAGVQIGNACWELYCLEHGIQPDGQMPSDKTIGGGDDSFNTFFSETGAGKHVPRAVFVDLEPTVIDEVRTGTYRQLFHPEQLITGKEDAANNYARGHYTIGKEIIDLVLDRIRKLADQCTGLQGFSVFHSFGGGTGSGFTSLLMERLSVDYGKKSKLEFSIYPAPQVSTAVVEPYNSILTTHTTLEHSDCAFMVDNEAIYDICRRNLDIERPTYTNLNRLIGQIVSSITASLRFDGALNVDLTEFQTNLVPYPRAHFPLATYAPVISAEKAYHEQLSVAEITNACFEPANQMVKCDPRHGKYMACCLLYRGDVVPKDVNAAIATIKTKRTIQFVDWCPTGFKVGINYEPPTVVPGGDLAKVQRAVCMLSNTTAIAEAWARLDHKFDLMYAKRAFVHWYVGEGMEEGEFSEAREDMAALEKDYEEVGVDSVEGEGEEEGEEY

SMILES: COc1cc(Cn2cc(-c3cccs3)ccc2=S)cc(OC)c1OC [Compound 16b]
- effect on tubulin polymerization (100 µM): acted as tubulin polymerization inhibitors
- IC50 (Vmax normalised to control, read-out: tubulin polymerization inhibition IC50): 37.3 ± 10.9 µM

Source: paper PMC13223435, “Synthesis and Antiproliferative Activity against Melanoma Cells of New Heterocyclic Hybrids Based on Pyridine and Pyrimidine Scaffolds” (Current Medicinal Chemistry, 2025)
